From patent US20190297888A1, “FUNGICIDAL COMPOUNDS AND MIXTURES FOR FUNGAL CONTROL IN CEREALS” (Dow AgroSciences LLC, priority 2016, published 2019)

Legend:
Format in all cases: in vivo
Conditions in all cases: AUDPC-based, 2 field trials
Puccinia hordei (PUCCHD) = test: Field assessment of Compound I and fluxapyroxad on rust of barley (AUDPC % control)
Method: (§1) Commercial standards used in the studies were Proline 275 (275 g ai/L Prothioconazole), applied at 150 g ai/ha, and SiltraXpro (200 g ai/L prothioconazole+60 g ai/[…] bixafen), applied at 195 g ai/ha.
(§2) Fungicidal treatments containing the compound of Formula I and fluxapyroxad, either individually or as a two-way mixture, were assessed against rust of barley (PUCCHD) in two separate field trials. In both trials, fungicidal treatments were applied at B37-39 growth stages of winter barley (Lomeritt variety) under natural infection of barley rust. All treatments were part of an experimental trial designed as a randomized complete block with four replications.
Disease severity (percentage of visual diseased foliage on whole plot or leaves) in […] field trials was recorded following EPPO PP1/26 guideline prescriptions. Area under the disease progress curve (AUDPC) was calculated for each plot in both trials using the sets of recorded severity data. Relative AUDPC (% control based on AUDPC) was calculated as percent of the nontreated control. […] Statistical analysis was done according to ANOVA and Tukey's test (p=0.10).

[1] = tested on: Pyrenophora teres (PYRNTE); test: Field assessment of Compound I and fluxapyroxad on net blotch of barley (AUDPC % control)
Method: as §1
as §2, with “net blotch” for “rust”, “(PYRNTE)” for “(PUCCHD)”, “B31-37” for “B37-39”, “and sprong barley (HORVW, Lomeritt variety; HORVS, Scarlett” for “(Lomeritt”, “net blotch (protectant tests, 1% infection on leaf 4 and 10% infection on leaf 6 at application).” for “barley rust.”
Disease severity (percentage of visual diseased foliage on whole plot or leaves) in both field trials was recorded following EPPO PP1/26 guideline prescriptions. Area under the disease progress curve (AUDPC) was calculated for each plot in both trials using the sets of recorded severity data. Relative AUDPC (% control based on AUDPC) was calculated as percent of the nontreated control. […] Statistical analysis was done according to ANOVA and Tukey's test (p=0.10).

[2] = tested on: Puccinia striiformis (PUCCST); test: Field assessment of Compound I and fluxapyroxad on yellow rust of wheat (AUDPC % control)
Description: Treatments consisting of the compound of Formula I and fungicide compound fluxapyroxad against fungal diseases of wheat were applied either using individually or as a two-way mixture of fluxapyroxad with the compound of Formula I. The compound of Formula I was applied with Agnique BP-420 (50% w/w at 0.3% v/v) at 50, 75 and 100 g ai/ha and Imtrex (Fluxapyroxad 62.5 g/L) was applied at 50, 75 and 100 g ai/ha. Commercial standards used in the studies were Adexar (epoxiconazole+fluxapyroxad—125 g/L), applied at 1.2 and 1.6 L pr/ha, and Elatus Era (benzovindiflupyr+prothioconazole—225 g/L), applied at 1.0 L pr/ha.
Fungicidal treatments containing the compound of Formula I and fluxapyroxad, either individually or as a two-way mixture, were assessed against yellow rust of wheat (PUCCST) in two separate field trials. In the first trial, fungicidal treatments were applied once at B37 (early curative, 6.5% infection at application on L3) growth stage of winter wheat (TRZAW, Fairplay variety). The treatments were part of an experimental trial designed as a randomized complete block with four replications and a plot of approximately 2×6 m. Treatments were applied at water volume of 200 L/ha, using a backpack plot sprayer (BKPCKAIR, FLATFANA nozzle) and pressurized at 300 kPa.
In the second trial, fungicidal treatments containing the compound of Formula I and fluxapyroxad, either individually or as a two-way mixture, were applied once at B33-37 (early curative, 0.5% infection on L2 at application) growth stages of wheat (TRZAW, SOLSTICE variety). The treatment was part of an experimental trial designed as a randomized complete block with four replications and a plot of approximately 1.5×14 m. Treatments were applied at water volume of 200 L/ha, using a backpack precision plot sprayer (BKCKAIR, FLAT FAN nozzle) and pressurized at 210 kPa.
Disease severity (percentage of visual diseased foliage on whole plot or leaves) in both field trials was recorded following EPPO PP1/26 guideline prescriptions. Area under the disease progress curve (AUDPC) was calculated for each plot in both trials using the sets of recorded severity data. Relative AUDPC (% control based on AUDPC) was calculated as percent of the nontreated control. Final results for the control of yellow rust of wheat by the compound of Formula I, fluxapyroxad and mixtures are reported as an average of the relative AUDPC calculated over both field trials. Statistical analysis was done according to ANOVA and Tukey's test (p=0.10).

Compound | PUCCHD % Control (Puccinia hordei (PUCCHD); rate 75 g ai/ha) [%] | PUCCHD % Control (Puccinia hordei (PUCCHD); rate 100 g ai/ha) [%] | PUCCHD % Control (Puccinia hordei (PUCCHD); rate 150 g ai/ha) [%] | PYRNTE % Control ([1]; rate 75 g ai/ha) [%] | PYRNTE % Control ([1]; rate 100 g ai/ha) [%] | PYRNTE % Control ([1]; rate 150 g ai/ha) [%] | PUCCST % Control ([2]; rate 50 g ai/ha) [%] | PUCCST % Control ([2]; rate 75 g ai/ha) [%] | PUCCST % Control ([2]; rate 100 g ai/ha) [%] | PUCCHD % Control (Puccinia hordei (PUCCHD); rate 45 g ai/ha) [%] | PUCCHD % Control (Puccinia hordei (PUCCHD); rate 62.5 g ai/ha) [%] | PYRNTE % Control ([1]; rate 45 g ai/ha) [%] | PYRNTE % Control ([1]; rate 62.5 g ai/ha) [%]
N#Cc1ccc(Oc2ccc(C(F)(F)C(O)(Cn3ncnc3S)c3ccc(F)cc3F)nc2)cc1 (stereo not drawn) [Compound I, 4-((6-(2-(2,4-difluorophenyl)-1,1-difluoro-2-hydroxy-3-(5-mercapto-1H-1,2,4-triazol-1-yl)propyl)pyridin-3-yl)oxy)benzonitrile] | 71.0 | 75.3 | 88.8 | 8.66 | 23.5 | 40.8 | 80.0 | 93.3 | 98.0 |  |  |  | 
Cn1cc(C(=O)Nc2ccccc2-c2cc(F)c(F)c(F)c2)c(C(F)F)n1 [Fluxapyroxad, 3-(difluoromethyl)-1-methyl-N-(3′,4′,5′-trifluorobiphenyl-2-yl)pyrazole-4-carboxamide] |  | 68.7 |  |  | 83.2 |  | 74.1 | 69.0 | 79.4 | 49.0 | 54.5 | 66.5 | 73.4
